Assay results taken from patent publication US11279708B2, “Amidino- and amino-rocaglates as novel translation inhibitors and anticancer agents” (priority 2019, dated 2022).

Experiments:
[1] = test system: cap-dependent translation; assay: in vitro translation of (AG)10- and (UC)10-FF/HCV/Ren mRNA reporters in Krebs-2 extracts; type: biochemical; conditions: cap-proximal (AG)10 or (UC)10
Procedure: Rocaglates show differing mRNA targeting spectra in translation assays. The in vitro experiments described above investigating the rocaglate-mediated inhibition of cap-dependent translation were performed at a fixed rocaglate concentration (2 μM) using a generic bicistronic mRNA reporter in Krebs-2 cell-free translation extracts (FIG. 19C). To better assess the consequences of eIF4A:polypurine clamping on the initiation process, we designed a series of bicistronic reporters harboring cap-proximal polypurine tracks of varying lengths in their 5′ leader region (FIG. 22A). […] We reasoned that these reporters would provide a sensitized readout for rocaglate-induce clamping of eIF4A at this location.
We next tested the response of mRNA reporters containing cap-proximal (AG)10 or (UC)10 sequences (FIG. 22A). […] The difference in activity observed between CR-1-31-B (23) and silvestrol 1 was not restricted to cap-proximal polypurine tracks, but also observed with reporters where the polypurine/polypyrimidine tracks were situated 15 nt downstream from the cap (FIGS. 24A and 24B).
(§1) In Vitro Translation Assays. In vitro translation assays performed in Krebs-2 cell extracts were supplemented with 5 mM MgCl2, 30 mM Tris-HCl (pH 7.5), 1.5 mM ATP, 0.1 mM GTP, 0.6 mM CTP, 10 mM dipotassium creatine phosphate, 80 μg/mL creatine kinase, and 0.04 mM amino acids. The specified mRNA reporters were added to each reaction at a final concentration of 10 ng/μL. The translation reactions were incubated with or without compound for 60 minutes at 30° C. prior to the measurement of luciferase activities.
FIGS. 23A-23C. The presence of polypurines bases in mRNA 5′ leader regions are not universal predictors of rocaglate-responsiveness. FIG. 23A. Schematic diagram of FF/HCV/Ren mRNA reporters containing cap-proximal (AG) or (UC) dinucleotide repeats. 23B. Firefly and renilla luciferase activity in response to the indicated CR-1-31-B (23) concentrations (relative to DMSO controls) in Krebs-2 extracts programmed with 4 ng/uL of the indicated mRNAs. n=3±SD. 23C. Dose response of the indicated compounds in Krebs-2 extracts programmed with 4 ng/μL of the indicated mRNAs. n=3± SD.
FIG. 23. Dose-response of (AG)10- and (UC)10-FF/HCV/Ren mRNAs to CMLD011167, hippuristanol and pateamine A in vitro. Firefly and renilla luciferase activity in response to the indicated compound concentrations (relative to DMSO controls) in Krebs-2 extracts programmed with 4 ng/μL of the indicated mRNAs. n=3± SD.

[2] = test system: eIF4A-dependent translation; assay: in vitro translation assay, bicistronic FF/HCV/Ren reporter mRNA in Krebs-2 extracts; type: biochemical; conditions: for IC50: bicistronic FF/HCV/Ren mRNA, FIG. 14/15, read-out: IC50, inhibition of cap-dependent translation (FF relative to REN); for inhibition of cap-dependent translation in vitro (in words): screen at 2 μM compound
Procedure: Structure-Activity Relationships. With a number of amidino-rocaglates and amino-rocaglates in hand, we evaluated their inhibition of eIF4A-dependent translation using an in vitro assay as depicted in FIG. 14, where a bicistronic reporter mRNA was designed for translation in Krebs-2 extracts. In FIG. 14 the following description applies (a) IC50 was determined from fitted sigmoid curves; […] indicates the concentration of compound that inhibits cap-dependent translation by 50%, which was normalized by cap-independent translation. For its determination, the bicistronic reporter FF/HCV/Ren mRNA was used to produce Firefly luciferase (cap-dependent) and Renilla luciferase (cap-independent) in Krebs-2 extracts in the presence of indicated compounds at various concentrations. In particular, translation of Firefly luciferase (FF) is cap-dependent and depends on eIF4A activity; in contrast, translation of Renilla luciferase (REN) utilizes the HCV internal ribosome entry site (IRES) which functions independently of eIF4A. IC50's were determined by the inhibition of FF relative to REN obtained in the presence of compound relative to vehicle controls and normalized to REN as an internal control. […] In accordance with the eIF4A-RNA-rocaglamide (2) co-crystallographic analysis (FIG. 4), the amide carbonyl of 2 interacts with Gln195 of eIF4A as a H-bond acceptor, while the tertiary hydroxyl of 2 serves as a H-bond donor to an RNA base. […] To further verify the hypothesis, amidino-rocaglates (pKa of N—H˜26.7-30.7 in DMSO, strong H-bond donors) and amino-rocaglates (pKa of N—H˜36 to 44 in DMSO, weak H-bond donors) were next evaluated. […] Conversely, benzyl amidine 9e had IC50=60 nM, whereas the methylene tether may allow conformational adjustment to avoid rigid repulsion in the binding pocket.
The rocaglate collection was also tested in in vitro translation assays using cell-free extracts with a previously described bicistronic mRNA containing the HCV IRES, which is not dependent on eIF4A activity and served as an internal control (FIG. 19C).
as §1
FIGS. 19A-19C. Rocaglate activity profiling. 19A. Assessing eIF4A1:poly r(AG)8 (SEQ ID NO: 2) RNA binding by FP in the presence of 10 μM rocaglate. Values are expressed relative to vehicle controls and data is rank ordered. n=3±SD. 19B. The change in polarization obtained with eIF4A1:poly r(AG)8 (SEQ ID NO: 2) and eIF4A2:poly r(AG)8 (SEQ ID NO: 2) RNA. Pearson r=0.814; p<0.0001. 19C. Inhibition of cap-dependent translation by rocaglates was measured using the indicated mRNA bicistronic reporter (4 ng/ul) in Krebs-2 extracts at a final compound concentration of 2 μM. n=3±SD.
FIG. 35A-35E are plots showing dose-response curve of FF-HCV-Ren mRNA translation in Krebs extracts with IC50s shown for inhibition of cap-dependent protein synthesis. Values are plotted relative to DMSO controls. n=2 technical replicates performed in duplicate.

## CONC(=O)[C@H]1[C@@H](O)[C@@]2(O)c3c(OC)cc(OC)cc3O[C@@]2(c2ccc(OC)cc2)[C@@H]1c1ccccc1 [CR-1-31-B]
[1]
  inhibition of (AG)10 versus (UC)10 reporter in vitro (in words): inhibited cap-dependent translation (FLuc) from only the (AG)10-containing mRNA
[2]
  IC50: 272 nM

## COC(=O)[C@@H]1[C@@H](c2ccccc2)[C@]2(c3ccc(OC)cc3)Oc3cc(OC)cc(OC)c3[C@@]23N=C(C)N[C@@]13O [9b]
[1]
  inhibition of (AG)10 versus (UC)10 reporter in vitro (in words): equally inhibited translation of both (AG)10 and (UC)10 reporters
[2]
  IC50: 189 nM
  inhibition of cap-dependent translation in vitro (in words): comparable potency to SDS-1-021

## COC(=O)[C@H]1[C@@H](O)[C@@]2(O)c3c(OC)cc(O[C@@H]4O[C@@H]([C@H](O)CO)CO[C@H]4OC)cc3O[C@@]2(c2ccc(OC)cc2)[C@@H]1c1ccccc1 [silvestrol]
[1]
  inhibition of (AG)10 versus (UC)10 reporter in vitro (in words): equally inhibited both mRNA reporters
[2]
  inhibition of cap-dependent translation in vitro (in words): potently inhibit cap-dependent translation

## COc1ccc([C@@]23Oc4cc(OC)cc(OC)c4[C@]2(O)[C@H](O)[C@H](C(=O)N(C)C)[C@H]3c2ccccc2)cc1 [RocA, rocaglamide A]
[1]
  inhibition of (AG)10 versus (UC)10 reporter in vitro (in words): inhibited cap-dependent translation (FLuc) from only the (AG)10-containing mRNA
